Measured values reported in patent publication US8921410B2, “Nicotinic acetylcholine receptor sub-type selective amides of diazabicycloalkanes” (Targacept, Inc., priority 2006, dated 2014).
Read-outs that look alike come from different tables or passages of the source.

Experiments:
[1] = biological target: rat α4β2 nAChR subtype (Rattus norvegicus (Rat), UniProt P09483+P12390); experiment: Radioligand ([3H]nicotine) binding at α4β2 nAChR, rat cortex membranes; conditions: [3H]nicotine 5 nM, rat cortex membranes
Chain of rat α4β2 nAChR subtype (P09483 31-630): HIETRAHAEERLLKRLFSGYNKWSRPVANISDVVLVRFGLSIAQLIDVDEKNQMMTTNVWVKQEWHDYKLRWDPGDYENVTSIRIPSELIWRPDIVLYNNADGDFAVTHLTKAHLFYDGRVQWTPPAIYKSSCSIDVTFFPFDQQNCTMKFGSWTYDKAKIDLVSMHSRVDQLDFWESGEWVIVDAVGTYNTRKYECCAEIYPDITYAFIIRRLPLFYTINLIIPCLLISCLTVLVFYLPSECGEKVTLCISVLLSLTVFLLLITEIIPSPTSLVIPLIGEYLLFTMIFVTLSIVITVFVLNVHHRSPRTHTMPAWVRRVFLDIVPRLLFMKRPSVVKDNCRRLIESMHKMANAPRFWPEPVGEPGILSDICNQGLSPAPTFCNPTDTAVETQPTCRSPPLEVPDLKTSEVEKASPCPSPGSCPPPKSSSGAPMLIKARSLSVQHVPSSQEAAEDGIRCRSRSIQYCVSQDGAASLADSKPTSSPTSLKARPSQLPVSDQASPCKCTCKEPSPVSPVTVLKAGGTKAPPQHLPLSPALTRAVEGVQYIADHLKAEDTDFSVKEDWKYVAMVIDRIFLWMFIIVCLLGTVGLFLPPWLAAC
Chain of rat α4β2 nAChR subtype (P12390 25-500): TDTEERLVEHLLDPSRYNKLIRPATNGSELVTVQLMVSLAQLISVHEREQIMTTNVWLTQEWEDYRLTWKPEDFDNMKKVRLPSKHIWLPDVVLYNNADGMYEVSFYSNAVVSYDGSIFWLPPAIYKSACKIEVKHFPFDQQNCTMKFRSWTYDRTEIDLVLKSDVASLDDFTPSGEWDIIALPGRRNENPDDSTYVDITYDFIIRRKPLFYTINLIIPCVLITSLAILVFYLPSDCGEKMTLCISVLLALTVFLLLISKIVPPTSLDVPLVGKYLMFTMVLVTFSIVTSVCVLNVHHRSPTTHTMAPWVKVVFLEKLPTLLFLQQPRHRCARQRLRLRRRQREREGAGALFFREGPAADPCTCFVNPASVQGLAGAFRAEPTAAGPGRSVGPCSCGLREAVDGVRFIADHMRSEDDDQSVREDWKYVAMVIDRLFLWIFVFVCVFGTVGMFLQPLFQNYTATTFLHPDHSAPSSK
Description: Preparation of Membranes from Rat Cortex:
(§1) Rats (female, Sprague-Dawley), weighing 150-250 g, were maintained on a 12 h light/dark cycle and were allowed free access to water and food supplied by PMI Nutrition International, Inc. Animals were anesthetized with 70% CO2, and then decapitated. Brains were removed and placed on an ice-cold platform. […] The homogenate was centrifuged at 18,000×g for 20 min at 4° C. and the resulting pellet was re-suspended in 20 volumes of ice-cold water. After 60 min incubation on ice, a new pellet was collected by centrifugation at 18,000×g for 20 min at 4° C. The final pellet was re-suspended in 10 volumes of buffer and stored at −20° C.
(§2) On the day of the assay, the frozen membranes were thawed and spun at 48,000×g for 20 min. The supernatant was decanted and discarded. The pellet was resuspended in Dulbecco's phosphate buffered saline (PBS, Life Technologies) pH 7.4 and homogenized with the Polytron for 6 seconds. Protein concentrations were determined using a Pierce BCA Protein Assay Kit, with bovine serum albumin as the standard (Pierce Chemical Company, Rockford, Ill.).
(§3) Tissue was rinsed 3 times in PBS, pH 7.4. Scintillation fluid was added to filters containing the washed tissue and allowed to equilibrate.
(§4) Data were expressed as disintegrations per minute (DPMs). Within each assay, each point had 2-3 replicates. The replicates for each point were averaged and plotted against the log of the drug concentration.

[2] = biological target: α7 nAChR subtype (Rattus norvegicus (Rat), UniProt Q05941); experiment: Radioligand ([3H]MLA) binding at α7 nAChR, rat hippocampus membranes
Chain of α7 nAChR subtype (Q05941 23-502): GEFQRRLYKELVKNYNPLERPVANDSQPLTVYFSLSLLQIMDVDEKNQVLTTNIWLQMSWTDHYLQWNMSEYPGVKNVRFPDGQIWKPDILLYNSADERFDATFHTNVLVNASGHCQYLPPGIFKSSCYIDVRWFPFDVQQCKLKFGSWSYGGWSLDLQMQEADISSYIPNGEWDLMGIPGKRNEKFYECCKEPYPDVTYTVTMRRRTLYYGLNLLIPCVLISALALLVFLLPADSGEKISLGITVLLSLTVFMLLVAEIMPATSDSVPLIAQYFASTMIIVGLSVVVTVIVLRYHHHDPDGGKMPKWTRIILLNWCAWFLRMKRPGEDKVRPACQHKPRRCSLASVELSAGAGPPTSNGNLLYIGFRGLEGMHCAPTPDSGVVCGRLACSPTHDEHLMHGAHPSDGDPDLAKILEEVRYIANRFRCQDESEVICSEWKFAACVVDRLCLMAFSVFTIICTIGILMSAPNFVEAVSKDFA
Description: as §1, with “CO2,” for “CO2, and”, “in 10” for “in 20”
The binding of [^3H]MLA was measured using a modification of the methods of Davies et al., Neuropharmacol. […] [^3H]MLA (Specific Activity=25-35 Ci/mmol) was obtained from Tocris. The binding of [^3H]MLA was determined using a 2 h incubation at 21° C. Incubations were conducted in 48-well micro-titre plates and contained about 200 μg of protein per well in a final incubation volume of 300 μL. The incubation buffer was PBS and the final concentration of [^3H]MLA was 5 nM. The binding reaction was terminated by filtration of the protein containing bound ligand onto glass fiber filters (GF/B, Brandel) using a Brandel Tissue Harvester at room temperature. […] Each filter was washed with PBS (3×1 mL) at room temperature. Non-specific binding was determined by inclusion of 50 μM non-radioactive MLA in selected wells.
The inhibition of [^3H]MLA binding by test compounds was determined by including seven different concentrations of the test compound in selected wells. Each concentration was replicated in triplicate. IC50 values were estimated as the concentration of compound that inhibited 50 percent of specific [^3H]MLA binding.

[3] = biological target: human α4β2 nAChR subtype (Homo sapiens (Human), UniProt P17787+P43681); experiment: Radioligand ([3H]nicotine) binding at α4β2 nAChR, SH-EP1/human α4β2 clonal cell membranes
Chain of human α4β2 nAChR subtype (P43681 29-627): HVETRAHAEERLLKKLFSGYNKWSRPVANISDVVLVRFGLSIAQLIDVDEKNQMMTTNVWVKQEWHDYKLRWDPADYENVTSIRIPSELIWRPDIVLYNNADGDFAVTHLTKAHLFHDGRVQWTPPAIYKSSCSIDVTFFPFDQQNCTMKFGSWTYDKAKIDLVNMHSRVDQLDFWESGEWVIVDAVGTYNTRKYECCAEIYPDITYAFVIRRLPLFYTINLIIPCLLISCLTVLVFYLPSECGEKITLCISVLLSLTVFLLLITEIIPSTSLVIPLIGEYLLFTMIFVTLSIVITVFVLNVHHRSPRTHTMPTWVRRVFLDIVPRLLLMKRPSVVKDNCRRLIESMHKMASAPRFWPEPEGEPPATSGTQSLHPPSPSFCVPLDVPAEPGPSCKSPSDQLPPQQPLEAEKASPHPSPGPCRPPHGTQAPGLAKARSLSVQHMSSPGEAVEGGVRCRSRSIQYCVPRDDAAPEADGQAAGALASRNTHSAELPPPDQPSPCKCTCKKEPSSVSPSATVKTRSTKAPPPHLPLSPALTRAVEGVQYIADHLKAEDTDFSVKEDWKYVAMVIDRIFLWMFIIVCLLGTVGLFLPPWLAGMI
Chain of human α4β2 nAChR subtype (P17787 26-502): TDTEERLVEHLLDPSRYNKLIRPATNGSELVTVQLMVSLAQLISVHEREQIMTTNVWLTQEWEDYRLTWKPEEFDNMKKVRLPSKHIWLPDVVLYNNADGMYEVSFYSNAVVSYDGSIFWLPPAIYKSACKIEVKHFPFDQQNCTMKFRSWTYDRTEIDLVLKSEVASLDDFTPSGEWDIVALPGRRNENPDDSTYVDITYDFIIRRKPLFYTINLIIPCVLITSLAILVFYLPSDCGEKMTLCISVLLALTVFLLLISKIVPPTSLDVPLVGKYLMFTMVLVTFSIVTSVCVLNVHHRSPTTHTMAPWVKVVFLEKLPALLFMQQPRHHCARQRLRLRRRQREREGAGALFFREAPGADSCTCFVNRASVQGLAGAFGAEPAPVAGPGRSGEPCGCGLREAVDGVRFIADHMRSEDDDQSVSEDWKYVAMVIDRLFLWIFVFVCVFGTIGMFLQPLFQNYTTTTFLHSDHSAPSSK
Description: Preparation of Membranes from SH-EP1/Human α4β2 Clonal Cells:
Cell pellets from 40 150 mm culture dishes were pooled, and homogenized by Polytron (Kinematica GmbH, Switzerland) in 20 milliliters of ice-cold preparative buffer. The homogenate was centrifuged at 48,000 g for 20 minutes at 4° C. The resulting pellet was re-suspended in 20 mL of ice-cold preparative buffer and stored at −20° C.
as §2, §3, §4

[4] = tested on: object recognition in rats; experiment: Novel object recognition (NOR) task; format: in vivo, rat; conditions: oral
Description: The novel object recognition (NOR) task was performed in accord with the description of Ennaceur and Delacour Behav. Brain Res. 100: 85-92 (1988).

[5] = [3H]MLA 5 nM, rat hippocampus membranes
[6] = [3H]nicotine 5 nM, SH-EP1/human α4β2 membranes, read-out: Human α4β2 Ki
[7] = did not bind sufficiently in HTS at α7 to warrant Ki determination

| Compound | Ki [1] [nM] | Ki [3, 6] [nM] | α7 high through-put screening outcome (Ki not determined) [2, 7] | other results |
| --- | --- | --- | --- | --- |
| O=C(c1ccncc1)N1CC2CNCC(C2)C1 | 110 | 18 |  | Ki [2, 5]: 1700 nM |
| Cc1ncoc1C(=O)N1CC2CNCC(C2)C1 | 20 | 64 | ND; failed HTS |  |
| Cc1nocc1C(=O)N1CC2CNCC(C2)C1 | 9.5 | 21 | ND; failed HTS |  |
| O=C(c1ccc(F)o1)N1CC2CNCC(C2)C1 | 6.4 |  | ND; failed HTS | Ki ([3]; read-out: Human α4β2 Ki): 4.6 nM |
| O=C(c1cc(-c2cc(F)cc(F)c2)co1)N1CC2CNCC(C2)C1 | 6.3 | 23 | ND; failed HTS |  |
| O=C(c1cc(-c2ccoc2)co1)N1CC2CNCC(C2)C1 | 12 | 35 | ND; failed HTS |  |
| O=C(c1occc1F)N1CC2CNCC(C2)C1 | 110 | 57 | ND; failed HTS |  |
| N#Cc1ccoc1C(=O)N1CC2CNCC(C2)C1 | 110 | 31 | ND; failed HTS |  |
| COc1ccoc1C(=O)N1CC2CNCC(C2)C1 | 560 |  | ND; failed HTS | Ki ([3]; read-out: Human α4β2 Ki): 28 nM |
| O=C(c1cnco1)N1CC2CNCC(C2)C1 | 28 | 26 | ND; failed HTS |  |
| O=C(c1cc(F)co1)N1CC2CNCC(C2)C1 | 28 | 14 | ND; failed HTS |  |
| C#Cc1ccc(C(=O)N2CC3CNCC(C3)C2)o1 | 220 | 47 | ND; failed HTS |  |
| Cc1cc(F)c(C(=O)N2CC3CNCC(C3)C2)o1 | 500 | 62 | ND; failed HTS |  |
| O=C(c1ncco1)N1CC2CNCC(C2)C1 | 370 | 85 | ND; failed HTS |  |
| N#Cc1coc(C(=O)N2CC3CNCC(C3)C2)c1 | 27 |  | ND; failed HTS | Ki [3]: 23 nM |
| O=C(c1cc(Br)co1)N1CC2CNCC(C2)C1 | 12 |  |  | α7 high through-put screening outcome (Ki not determined) [2]: ND; failed HTS; Ki ([3]; read-out: Human α4β2 Ki): 1.7 nM |
| Cc1oncc1C(=O)N1CC2CNCC(C2)C1 | 65 |  | ND; failed HTS | Ki ([3]; read-out: Human α4β2 Ki): 31 nM |
| O=C(c1ccno1)N1CC2CNCC(C2)C1 | 52 | 30 | ND; failed HTS |  |
| O=C(c1ccc(Cl)o1)N1CC2CNCC2C1 (centres unmarked) [N-(5-chlorofuran-2-ylcarbonyl)-3,7-diazabicyclo[3.3.0]octane] | 33 | 28 |  | Ki [2, 5]: 91000 nM; activity in object recognition (OR) ([4]; 0.1 mg/kg (FIG. 1)): active |
| O=C(c1ccc(Cl)o1)N1CC2CNCC(C2)C1 [N-(5-chlorofuran-2-ylcarbonyl)-3,7-diazabicyclo[3.3.1]nonane] | 15 | 7.3 |  | Ki [2, 5]: 120000 nM; activity in object recognition (OR) ([4]; 0.3 mg/kg (FIG. 2)): active |
| O=C(c1ccco1)N1CC2CNCC2C1 (centres unmarked) [N-(furan-2-ylcarbonyl)-3,7-diazabicyclo[3.3.0]octane] | 20 | 33 |  | Ki [2, 5]: 13000 nM |
| O=C(c1ccco1)N1CC2CNCC(C2)C1 [N-(furan-2-ylcarbonyl)-3,7-diazabicyclo[3.3.1]nonane] | 31 | 9.9 |  | Ki [2]: 15000 nM |
